According to patent US11413289B2 (Aerovate Therapeutics, Inc., priority 2019, dated 2022):

Test: Thermal stability and polymorphism of imatinib salts
Assay type: physicochemical

Row | Compound | thermal stability and polymorphic forms
1 | tartrate | suitable thermal stability and few or single polymorphic forms
2 | malonate | suitable thermal stability and few or single polymorphic forms
3 | O=S(=O)(O)CCO [isethionate] | suitable thermal stability and few or single polymorphic forms
4 | malate | suitable thermal stability and few or single polymorphic forms
